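All cell lines were grown in 96-well plates and treated with compound for 48 hours. Abbreviation: GI50, concentration required for 50% inhibition of growth. The concentration for full growth arrest is given as TGI.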

Holding throughout (experiment): NCI-60 cell line screen, 48 h
Experiment [1] deals with DU-145 prostate.
Experiment [2] concerns MDA-N.
Experiment [3] has as its system HS 578T breast.
Experiment [4] deals with SNB-78 CNS.
In experiment [5] the test system is XF 498 CNS.
For experiment [6], the system named is DMS 114 small cell lung.
In experiment [7] the test system is LXFL 529 NSCLC.
In experiment [8] the test system is KM20L2 colon.

Turning to `OCCCNCc1ccccn1`, the TGI in experiment [1], in experiment [2] and in experiment [3] was over 100 µM each time.
As for `CCOC(=O)/C=C/c1ccc(C(=O)OCC)[nH]1`, the GI50 in experiment [1] is 3.41 µM; in experiment [3], 2.43 µM. Moreover, the TGI in experiment [1] came to 19.6 µM; in experiment [3], 22.3 µM.
On the same counts, the results for `O=C(N/N=C/c1ccc(F)cc1)c1[nH]c2ccc(I)cc2c1-c1ccccc1` are 0.479 µM, 0.235 µM, 2.46 µM and 0.642 µM.
With `COC(=O)c1ccc(OCc2ccc3oc(=O)c(-c4ccccc4)nc3c2)cc1`, the TGI in experiment [4], in experiment [5] and in experiment [6] was over 100 µM each time.
`CCN(CC)C(=S)SSC1CCCCC1`: the GI50 is 20.3 µM in experiment [1] and 27.4 µM in experiment [3]. Moreover, the figures for the TGI in experiment [1] and in experiment [3] were 45.5 µM and 88.2 µM, respectively.
In the case of `O=C(/C=C/c1ccc([N+](=O)[O-])o1)NNC(=O)c1cc2ccccc2cc1O`, in experiment [1], the GI50 was 0.998 µM and the TGI was 4.3 µM. In addition, in experiment [3], the GI50 is 6.21 µM and the TGI is over 100 µM.
On to `OC1CCC(C2C3CCCCC3C3CCCCC3C2C2CCC(O)CC2)CC1` (stereo not given), for which the TGI in experiment [1] and in experiment [3] was over 100 µM throughout.
On to `Cc1ccc(N2C(=O)C(Cl)=C(Nc3cccc(O)c3)C2=O)cc1Cl`, for which the GI50 in experiment [1] was 16.9 µM; in experiment [3], 17.4 µM. Further, the TGI turned out to be 31.5 µM in experiment [1] and 42.1 µM in experiment [3].
Consider `O=C(Nc1ccc(Br)cc1)c1cc(Br)cc(Br)c1O`, for which, in experiment [1], the GI50 is 3.56 µM and the TGI stood at 19.9 µM. In addition, in experiment [3], the GI50 is 2.71 µM and the TGI was determined as 7.74 µM.
On to `C=C1C(O)C2C(=C(CC(C)C)C13CC3)C(=O)C(C)(C)C2OC` (stereo not given), for which, in experiment [1], the GI50 is over 100 µM and the TGI is over 100 µM. In experiment [3], the GI50 is over 100 µM and the TGI was over 100 µM.
`CCCCCCCCCCCC(=O)C1=C(O)C(O)CCC1=O` (stereo not given): the TGI in experiment [7] turned out to be 53.9 µM; in experiment [4], 55.8 µM; in experiment [8], 24.9 µM; in experiment [5], 26.4 µM; in experiment [6], 50.5 µM.
Regarding `Cc1ccc(C)c(NC(=O)/C(=N\NC(N)=S)C(C#N)c2ccccc2)c1` (stereo not given), the TGI in experiment [7], in experiment [8], in experiment [5] and in experiment [6] was over 100 µM in each case.
As to `CCOC(=O)c1c2ccc(/C=C/C(=O)OC)ccc-2c(C(=O)OCC)c1N`, the TGI in experiment [7], in experiment [8] and in experiment [6] was over 100 µM throughout.
On to `O=C(O)c1nnsc1COCc1ccccc1`, for which the TGI in experiment [1], in experiment [2] and in experiment [3] was over 100 µM throughout.
Take `O=C1NC(=O)C(c2ccccc2Cl)=C1Nc1cccc(O)c1`: in experiment [1], the GI50 is 9.29 µM and the TGI was over 25 µM. In experiment [3], the GI50 is 1.82 µM and the TGI amounted to 17.7 µM.
As for `N#C/C(=C(\O)C(=O)O)c1ccc(-c2cccc3ccccc23)cc1`, the TGI in experiment [1], in experiment [2] and in experiment [3] was over 100 µM each time.
For `O=C1/C(=C\c2cccs2)Oc2ccccc21`, the TGI in experiment [1], in experiment [2] and in experiment [3] was over 100 µM in each case.
`CN(C)CN1C(=O)S/C(=C2\C(=O)N(CN(C)C)c3ccccc32)C1=O`: the TGI in experiment [1] and in experiment [3] was over 100 µM throughout.
As for `O=C(O)C(Cc1ccc(O)c([N+](=O)[O-])c1)N1C(=O)c2ccccc2C1=O` (stereo not given), the TGI in experiment [1], in experiment [2] and in experiment [3] was over 100 µM throughout.
For the compound `C=C(CNCCO)[C@@H]1CC[C@]2(CO)CC[C@]3(C)[C@H](CC[C@@H]4[C@@]5(C)CCC(NCCc6ccc(O)cc6)C(C)(C)[C@@H]5CC[C@]43C)[C@@H]12` (stereo not given in full), the results for the GI50 in experiment [1] and in experiment [3] were 1.6 µM and 1.49 µM, respectively. Also, the TGI in experiment [1] was found to be 3.03 µM; in experiment [3], 3.7 µM.
With `CN(C)CCNC(=O)c1cccc(CO)c1[N+](=O)[O-]`, the TGI in experiment [1], in experiment [2] and in experiment [3] was over 100 µM in each case.
As for `O=c1oc2c3ccc4ccccc4c3n(Cc3nc4ccccc4[nH]3)c2c2ccccc12`, the TGI in experiment [7], in experiment [4], in experiment [8] and in experiment [6] was over 100 µM each time.
In the case of `CC/C=C\C[C@H](O)C/C=C1/C(=O)C=C[C@@H]1C/C=C\CCCC(N)=O`, in experiment [1], the GI50 was 2.5 µM and the TGI was 11 µM. In addition, in experiment [3], the GI50 was 5.29 µM and the TGI was 32.4 µM.
Taken in the same sequence, the figures for `C=C1C(=O)O[C@H]2[C@H]1CC/C(COC(=O)c1ccc(C(=O)O)s1)=C\CC[C@@]1(C)O[C@@H]21` were 1.59 µM, 3.13 µM, 4.79 µM and 64.5 µM.
On to `Cn1nnnc1[N-]Cc1ccccc1.[Au+].c1ccc([PH+](c2ccccc2)c2ccccc2)cc1`, for which the GI50 was 1.45 µM in experiment [7], 6.86 µM in experiment [4], 8.56 µM in experiment [8] and 1.53 µM in experiment [6]. The TGI in experiment [7] was 2.79 µM; in experiment [4], over 66.9 µM; in experiment [8], 29.8 µM; in experiment [6] it was 4.83 µM.
For `COC1C(=O)CCC2(CO2)C1(O)C1(C)OC1CCC(C)C` (stereo not given), the TGI in experiment [1], in experiment [2] and in experiment [3] was over 100 µM each time.
As to `NC(N)=N/N=C/c1c(-c2cc(Cl)sc2Cl)nc2n1CCS2`, in experiment [3], the GI50 was 9.23 µM and the TGI was determined as 21.8 µM.
`Cc1cc2occ(C)c(=O)c2c2c1OC(C)(C)S2`: the TGI in experiment [7], in experiment [8], in experiment [5] and in experiment [6] was over 100 µM in each case.
Consider `O=C1Cc2c(-c3ccccc3)cc(-c3cccc(Cl)c3)nc2-c2ccccc2N1`, for which the values for the TGI in experiment [1], in experiment [2] and in experiment [3] were 11.8 µM, 31.6 µM and 9.85 µM, respectively.
